Test results: ChEMBL document CHEMBL4483862, “Open-source discovery of chemical leads for next-generation chemoprotective antimalarials” (2018)

Tested on: Plasmodium berghei
Assay: Luciferase/luciferin-expressing antifolate-resistant parasites were used to infect a culture of HepG2 cells that were pre-incubated with compounds. Infected hepatocytes emit light due to the luciferase reaction. Assay results are presented as the percent inhibition of light emission compared to control. […]
Assay type: functional
Conditions: sporozoite; for IC90: read-out: LUCIFERASE INFECTION ASSAY - IC90
[1] = read-out: LUCIFERASE INFECTION ASSAY - IC50

Row | SMILES | IC90 [µM] | also measured
1 | O=C(Nc1nc2ccccc2s1)N1CC=C(c2c[nH]c3ncccc23)CC1 | > 10 | IC50 (HEPG2TOX_HILL_SLOPE 3.51, HEPG2TOX_R_SQUARED 0.954, PBLUC_HILL_SLOPE 3.11, PBLUC_R_SQUARED 0.433, read-out: LUCIFERASE INFECTION ASSAY - IC50): 6.66 µM
2 | CCOc1ccccc1C(=O)N[C@H](C(=O)Nc1sc2c(c1C(N)=O)CCC2)C(C)C | 9.93 | IC50 (HEPG2TOX_HILL_SLOPE 7.99, HEPG2TOX_R_SQUARED 0.813, PBLUC_HILL_SLOPE 17.7, PBLUC_R_SQUARED 0.214, read-out: LUCIFERASE INFECTION ASSAY - IC50): 8.77 µM
3 | CC(C)c1nc(N2CCN(C)CC2)c(C#N)c2c1CCCC2 | > 11.1 | IC50 (FFLUC_HILL_SLOPE 0.534, FFLUC_R_SQUARED 0.16, read-out: LUCIFERASE INFECTION ASSAY - IC50): > 11.1 µM
4 | COc1ccc(Nc2ccnc3cc(Cl)ccc23)cc1OC | > 10 | IC50 [1]: 7.03 µM
5 | O=C(CNc1cccc(C(F)(F)F)c1)N/N=C/c1c2ccccc2c(Cl)c2ccccc12 | > 10 | IC50 (HEPG2TOX_HILL_SLOPE 7.3, HEPG2TOX_R_SQUARED 0.234, PBLUC_HILL_SLOPE 3.59, PBLUC_R_SQUARED 0.507, read-out: LUCIFERASE INFECTION ASSAY - IC50): 6.19 µM
6 | CCN(CC)S(=O)(=O)c1ccc2[nH]c(=O)cc(C(=O)Nc3cc(Cl)c(OC)cc3OC)c2c1 | > 10 | IC50 [1]: > 10 µM
7 | COc1cc(C(=O)NCCCn2ccc3ccccc32)cc(OC)c1C | > 10 | IC50 (HEPG2TOX_HILL_SLOPE 8.33, HEPG2TOX_R_SQUARED 0.471, PBLUC_HILL_SLOPE 17.9, PBLUC_R_SQUARED 0.367, read-out: LUCIFERASE INFECTION ASSAY - IC50): 9.65 µM
8 | O=C1CCCN1c1cccc(Oc2nc(-c3cccnc3)nc3ccccc23)c1 | > 10 | IC50 [1]: > 10 µM
9 | CC(C)(C)C1CCc2[nH]c(=O)sc2C1 (stereo not given) | 1.31 | IC50 (HEPG2TOX_HILL_SLOPE 1.45, HEPG2TOX_R_SQUARED 0.907, PBLUC_HILL_SLOPE 17.6, PBLUC_R_SQUARED 0.512, read-out: LUCIFERASE INFECTION ASSAY - IC50): 1.16 µM
10 | O=C(NCc1nccs1)c1nn(Cc2ccccc2)c2c1CN(C(=O)c1cc3ccccc3[nH]1)CC2 | > 6.65 | IC50 (PBLUC_HILL_SLOPE 8.98, PBLUC_R_SQUARED 0.075, read-out: LUCIFERASE INFECTION ASSAY - IC50): 5.69 µM
11 | Cn1ccc2cc(-c3cn4c(-c5ccc(CO)cc5)cnc4cn3)ccc21 | 0.829 | IC50 (FFLUC_HILL_SLOPE 16.7, FFLUC_R_SQUARED 0.117, HEPG2TOX_HILL_SLOPE 0.88, HEPG2TOX_R_SQUARED 0.915, PBLUC_HILL_SLOPE 3.4, PBLUC_R_SQUARED 0.717, read-out: LUCIFERASE INFECTION ASSAY - IC50): 0.435 µM
12 | COc1ccc(OC)c(C(=O)/C=C/c2cc(Br)cs2)c1 | 5.17 | IC50 (HEPG2TOX_HILL_SLOPE 14.7, HEPG2TOX_R_SQUARED 0.849, PBLUC_HILL_SLOPE 92.6, PBLUC_R_SQUARED 0.363, read-out: LUCIFERASE INFECTION ASSAY - IC50): 5.05 µM
13 | COCCNC(=O)c1ccc(C2(CNc3ccc(OC)c(OC)c3)CC2)cc1 | 1.89 | IC50 (FFLUC_HILL_SLOPE 16.1, FFLUC_R_SQUARED 0.266, PBLUC_HILL_SLOPE 1.26, PBLUC_R_SQUARED 0.621, read-out: LUCIFERASE INFECTION ASSAY - IC50): 0.332 µM
14 | CN(C)CC(=O)N1CCN(c2nc(/C=C/c3ccccc3)nc3sc4c(c23)CCCC4)CC1 | 5.01 | IC50 (PBLUC_HILL_SLOPE 3.64, PBLUC_R_SQUARED 0.565, read-out: LUCIFERASE INFECTION ASSAY - IC50): 2.74 µM
15 | O=C1NC(=O)/C(=C\c2ccc(Cl)c(Cl)c2)N1 | 5.37 | IC50 (HEPG2TOX_HILL_SLOPE 1.44, HEPG2TOX_R_SQUARED 0.948, PBLUC_HILL_SLOPE 2.09, PBLUC_R_SQUARED 0.686, read-out: LUCIFERASE INFECTION ASSAY - IC50): 1.87 µM
16 | COc1ccc(O)c(/C=N/Nc2ncc(C(F)(F)F)cc2Cl)c1 | 3.73 | IC50 (HEPG2TOX_HILL_SLOPE 3.8, HEPG2TOX_R_SQUARED 0.813, PBLUC_HILL_SLOPE 18.3, PBLUC_R_SQUARED 0.305, read-out: LUCIFERASE INFECTION ASSAY - IC50): 3.31 µM
17 | CCN1CCCC1CNCC(=O)Nc1cc(Cl)ccc1C#N (stereo not given) | > 10 | IC50 [1]: > 10 µM
18 | OC(c1ccc(Nc2nc3ccccc3s2)cc1)(C(F)(F)F)C(F)(F)F | 9.74 | IC50 (PBLUC_HILL_SLOPE 1.04, 1.87, PBLUC_R_SQUARED 0.121, 0.671, read-out: LUCIFERASE INFECTION ASSAY - IC50): 5.01 µM
19 | COc1cccc(C(=O)Nc2nc3ccc(Br)cn3n2)c1 | > 9.51 | IC50 (HEPG2TOX_HILL_SLOPE 1.29, HEPG2TOX_R_SQUARED 0.954, read-out: LUCIFERASE INFECTION ASSAY - IC50): > 9.51 µM
20 | CCCCN(Cc1nc(=O)c2ccccc2[nH]1)C(=O)c1cc2c(F)cccc2s1 | > 10 | IC50 (HEPG2TOX_HILL_SLOPE 1.1, HEPG2TOX_R_SQUARED 0.0883, read-out: LUCIFERASE INFECTION ASSAY - IC50): > 10 µM

Row | SMILES | IC90 [µM] | also measured
21 | CN(C1CCCCCC1)S(=O)(=O)c1ccc(-n2ncc(Cl)c(Cl)c2=O)cc1 | 5.25 | IC50 [1]: 3.55 µM
22 | O=C(Nc1nc2c(-c3ccccc3)c(C(F)(F)F)sc2s1)c1ccc(Cl)cc1 | > 7.52 | IC50 (PBLUC_HILL_SLOPE 7.81, PBLUC_R_SQUARED 0.676, read-out: LUCIFERASE INFECTION ASSAY - IC50): 6.32 µM
23 | Cc1ccc(CC(=O)NCc2ccc(C#N)cc2)cc1 | 8.45 | IC50 (PBLUC_HILL_SLOPE 3.17, PBLUC_R_SQUARED 0.517, read-out: LUCIFERASE INFECTION ASSAY - IC50): 4.23 µM
24 | O=C(c1cnc(Nc2cccc(Cc3ccccc3)c2)[nH]1)c1ccccc1O | > 8.93 | IC50 (PBLUC_HILL_SLOPE 2.54, PBLUC_R_SQUARED 0.464, read-out: LUCIFERASE INFECTION ASSAY - IC50): 6.19 µM
25 | Cc1ccccc1CN1CCN2C=C(C(=O)Nc3ccc(Oc4ccccc4)cc3)OC2=NC1=O | > 10 | IC50 [1]: > 10 µM
26 | CC(C)(C)C(=O)/C=c1\[nH]c(=O)/c(=C\c2ccc(-c3ccc(S(=O)(=O)N4CCOCC4)cc3)o2)s1 | > 10 | IC50 (FFLUC_HILL_SLOPE 2, FFLUC_R_SQUARED 0.892, read-out: LUCIFERASE INFECTION ASSAY - IC50): > 10 µM
27 | COc1cccc(NC(=O)c2csc(C(O)c3cccc(C(F)(F)F)c3)n2)c1 (stereo not given) | > 10 | IC50 [1]: > 10 µM
28 | COc1cc(NCc2cc(Cl)cc(Cl)c2OC)ccc1NC(=O)C(C)C | 8.02 | IC50 (HEPG2TOX_HILL_SLOPE 3.35, HEPG2TOX_R_SQUARED 0.946, PBLUC_HILL_SLOPE 1.13, PBLUC_R_SQUARED 0.756, read-out: LUCIFERASE INFECTION ASSAY - IC50): 1.15 µM
29 | CC1CCCC(N=C2NN=C(c3c[nH]c(C(=O)N4CCCC4)c3)CS2)C1C (stereo not given) | > 10 | IC50 (HEPG2TOX_HILL_SLOPE 0.0793, HEPG2TOX_R_SQUARED 0.0179, read-out: LUCIFERASE INFECTION ASSAY - IC50): > 10 µM
30 | Cc1ccc(C(=O)C(=O)Nc2cc(S(=O)(=O)N3CCCCC3)ccc2OC(C)C)cc1 | > 10 | IC50 (FFLUC_HILL_SLOPE 11.8, FFLUC_R_SQUARED 0.613, read-out: LUCIFERASE INFECTION ASSAY - IC50): > 10 µM
31 | O=C1CCCC2=Nc3ccc4ccccc4c3C(c3ccc(F)cc3F)C12 (stereo not given) | > 10 | IC50 (FFLUC_HILL_SLOPE 2.36, FFLUC_R_SQUARED 0.309, read-out: LUCIFERASE INFECTION ASSAY - IC50): > 10 µM
32 | COc1ccc(C)cc1CN1CCN(c2ccc(S(=O)(=O)NC(C)(C)C)cc2[N+](=O)[O-])CC1 | > 10 | IC50 (PBLUC_HILL_SLOPE 0.589, PBLUC_R_SQUARED 0.215, read-out: LUCIFERASE INFECTION ASSAY - IC50): > 10 µM
33 | CCOC(=O)c1ccc(Oc2sccc2[N+](=O)[O-])cc1 | > 11.3 | IC50 [1]: > 11.3 µM
34 | Cc1ccc(C(=O)/C=C/c2cn(C)c(=O)n(C)c2=O)c(C)c1 | > 10 | IC50 (PBLUC_HILL_SLOPE 10.4, PBLUC_R_SQUARED 0.461, read-out: LUCIFERASE INFECTION ASSAY - IC50): 8.74 µM
35 | Cc1cccc(C)c1NC(=O)Nc1cccn(Cc2ccc(Cl)cc2)c1=O | > 8.64 | IC50 (PBLUC_HILL_SLOPE 2.91, PBLUC_R_SQUARED 0.157, read-out: LUCIFERASE INFECTION ASSAY - IC50): 7.92 µM
36 | CCN1C(=O)N(CCCc2cccnc2)C(=O)C12CCN(Cc1cccc(C(F)(F)F)c1)CC2 | > 6.95 | IC50 (HEPG2TOX_HILL_SLOPE 2.53, HEPG2TOX_R_SQUARED 0.847, PBLUC_HILL_SLOPE 12.5, PBLUC_R_SQUARED 0.0898, read-out: LUCIFERASE INFECTION ASSAY - IC50): 6.59 µM
37 | CNc1snc(C)c1C(=O)OCc1cc(Cl)ccc1OC | 4.16 | IC50 (FFLUC_HILL_SLOPE 8.97, FFLUC_R_SQUARED 0.0554, PBLUC_HILL_SLOPE 11, PBLUC_R_SQUARED 0.441, read-out: LUCIFERASE INFECTION ASSAY - IC50): 3.41 µM
38 | CC(C)(C)c1cc(C(=O)N/N=C/c2ccc([N+](=O)[O-])s2)[nH]n1 | > 10.3 | IC50 (PBLUC_HILL_SLOPE 1.97, PBLUC_R_SQUARED 0.294, read-out: LUCIFERASE INFECTION ASSAY - IC50): 3.6 µM
39 | CCCc1c(NC(=O)Nc2ccc(F)cc2)cnn1-c1ccccc1 | 6.91 | IC50 (HEPG2TOX_HILL_SLOPE 4.02, HEPG2TOX_R_SQUARED 0.285, PBLUC_HILL_SLOPE 3.66, PBLUC_R_SQUARED 0.261, read-out: LUCIFERASE INFECTION ASSAY - IC50): 3.79 µM
40 | CC1(NC(=O)COC(=O)c2cc(Cl)c3c(c2)OCO3)CCS(=O)(=O)C1 (stereo not given) | > 10 | IC50 [1]: > 10 µM
